Source: patent US7071169B2, “Pyrane derivatives as both ACE-and NEP-inhibitors” (Novartis AG, priority 2001, dated 2006)
Bridges are numbered along the chain shown (N, C = ends). Where no end group is shown, it is not given here.

What was measured:
[1] = system: angiotensin I induced pressor response; assay: inhibition of the angiotensin I induced pressor response in normotensive rats; assay type: in vivo, rat; conditions: 10 mg/kg p.o., for 4 hours
Procedure: The in vivo test for i.v. administered compounds is performed with male, normotensive rats, which are anesthetized with sodium metofan. A femoral artery and femoral vein are cannulated respectively for direct blood pressure measurement on i.v. administration of angiotensin I and i.v. or p.o. administration of a compound of this invention. After the basal blood pressure is stabilized, pressor responses to 3 challenges of 300 ng/kg angiotensin I i.v., at 15 minute intervals, are obtained. Such pressure responses are usually again obtained at 15, 30, 60 and 90 minutes, and then every hour up to 6 hours after i.v. or p.o. administration of the compound to be tested, and compared with the initial responses. Any observed decrease of said pressor response is an indication of ACE inhibition.

[2] = system: spontaneously hypertensive rat (SHR); assay: antihypertensive activity in conscious spontaneously hypertensive rat (SHR); assay type: in vivo; conditions: 11.6 mg/kg p.o.
Description: The antihypertensive activity can be determined, e.g., in the spontaneously hypertensive rat (SHR) and the desoxy-corticosterone acetate (DOCA)-salt hypertensive rat, e.g., according to Trapani et al., J. Cardiovasc. Pharmacol., Vol. 14, pp. 419–424 (1989).

ACE = ACE (Homo sapiens, UniProt P12821); assay: in vitro inhibition of ACE (hippuryl-histidyl-leucine hydrolysis); assay type: biochemical; conditions: ACE in vitro assay
Sequence of ACE (P12821 30-1306, species assumed): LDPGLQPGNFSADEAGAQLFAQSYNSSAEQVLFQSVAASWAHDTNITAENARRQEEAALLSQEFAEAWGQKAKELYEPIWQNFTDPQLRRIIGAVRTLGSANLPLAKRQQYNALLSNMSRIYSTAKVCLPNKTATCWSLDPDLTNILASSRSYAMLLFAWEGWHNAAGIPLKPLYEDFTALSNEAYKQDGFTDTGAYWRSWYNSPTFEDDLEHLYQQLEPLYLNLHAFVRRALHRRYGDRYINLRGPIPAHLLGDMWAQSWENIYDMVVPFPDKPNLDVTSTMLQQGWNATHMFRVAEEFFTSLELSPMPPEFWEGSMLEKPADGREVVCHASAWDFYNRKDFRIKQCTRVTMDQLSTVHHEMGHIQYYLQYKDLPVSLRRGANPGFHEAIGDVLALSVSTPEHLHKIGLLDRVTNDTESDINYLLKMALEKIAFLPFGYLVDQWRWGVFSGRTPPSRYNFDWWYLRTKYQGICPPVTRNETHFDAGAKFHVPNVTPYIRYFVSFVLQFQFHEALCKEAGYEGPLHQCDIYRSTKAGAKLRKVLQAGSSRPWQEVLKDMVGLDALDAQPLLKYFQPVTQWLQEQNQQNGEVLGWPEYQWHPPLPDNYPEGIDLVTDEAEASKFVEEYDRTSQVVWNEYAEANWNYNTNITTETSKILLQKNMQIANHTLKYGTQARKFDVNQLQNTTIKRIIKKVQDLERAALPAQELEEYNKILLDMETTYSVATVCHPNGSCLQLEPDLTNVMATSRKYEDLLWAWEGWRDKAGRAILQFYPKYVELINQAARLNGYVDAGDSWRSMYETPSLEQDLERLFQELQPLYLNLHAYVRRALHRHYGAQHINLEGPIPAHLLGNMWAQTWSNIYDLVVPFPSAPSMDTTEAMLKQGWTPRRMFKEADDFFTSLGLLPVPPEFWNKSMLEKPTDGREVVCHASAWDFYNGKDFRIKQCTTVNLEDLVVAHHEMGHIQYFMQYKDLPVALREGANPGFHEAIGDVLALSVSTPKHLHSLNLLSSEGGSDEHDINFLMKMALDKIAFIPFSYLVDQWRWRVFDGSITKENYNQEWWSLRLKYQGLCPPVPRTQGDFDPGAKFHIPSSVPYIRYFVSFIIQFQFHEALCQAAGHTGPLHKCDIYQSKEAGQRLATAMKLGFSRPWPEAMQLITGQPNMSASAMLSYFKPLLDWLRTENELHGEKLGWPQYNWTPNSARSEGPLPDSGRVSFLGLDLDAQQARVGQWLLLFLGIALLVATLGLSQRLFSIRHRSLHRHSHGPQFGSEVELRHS
Procedure: (§1) In vitro testing is most appropriate for the free carboxylic acids of the invention. The test compound is dissolved in dimethyl sulfoxide, ethanol, or 0.25M sodium bicarbonate solution, and the solution is diluted with buffer to the desired concentration.
The buffer for the ACE assay is 300 mM NaCl, 100 mM KH2PO4 (pH 8.3). The reaction is initiated by the addition of 100 μL of hippuryl-histidyl-leucine (2 mg/mL) to tubes containing enzyme and drug in a volume of 150 μL and tubes are incubated for 30 minutes at 37° C. The reaction is terminated by the addition of 0.75 mL 0.6N NaOH. 100 μL of freshly prepared o-phthalaldehyde solution (2 mg/mL in methanol) is added to the tubes, the contents are mixed and allowed to stand at room temperature. After 10 minutes, 100 μL of 6N HCl is added. The tubes are centrifuged and the supernatant optical density is read at 360 nm. The results are plotted against drug concentration to determine the IC50, i.e., the drug concentration which gives half the activity of the control sample containing no drug.

NEP (EC 3.4.24.11) = target: T1, NEP (EC 3.4.24.11) (Rattus norvegicus, UniProt P07861); assay: in vitro inhibition of NEP (hydrolysis of glutaryl-Ala-Ala-Phe-2-naphthylamide, GAAP assay); assay type: biochemical; conditions: rat kidney cortex membranes
T1 construct: rat kidney cortex membranes prepared by method of Maeda et al. (1983); from tissue; host or cells: rat kidney cortex membranes
T1 sequence (P07861 1-750): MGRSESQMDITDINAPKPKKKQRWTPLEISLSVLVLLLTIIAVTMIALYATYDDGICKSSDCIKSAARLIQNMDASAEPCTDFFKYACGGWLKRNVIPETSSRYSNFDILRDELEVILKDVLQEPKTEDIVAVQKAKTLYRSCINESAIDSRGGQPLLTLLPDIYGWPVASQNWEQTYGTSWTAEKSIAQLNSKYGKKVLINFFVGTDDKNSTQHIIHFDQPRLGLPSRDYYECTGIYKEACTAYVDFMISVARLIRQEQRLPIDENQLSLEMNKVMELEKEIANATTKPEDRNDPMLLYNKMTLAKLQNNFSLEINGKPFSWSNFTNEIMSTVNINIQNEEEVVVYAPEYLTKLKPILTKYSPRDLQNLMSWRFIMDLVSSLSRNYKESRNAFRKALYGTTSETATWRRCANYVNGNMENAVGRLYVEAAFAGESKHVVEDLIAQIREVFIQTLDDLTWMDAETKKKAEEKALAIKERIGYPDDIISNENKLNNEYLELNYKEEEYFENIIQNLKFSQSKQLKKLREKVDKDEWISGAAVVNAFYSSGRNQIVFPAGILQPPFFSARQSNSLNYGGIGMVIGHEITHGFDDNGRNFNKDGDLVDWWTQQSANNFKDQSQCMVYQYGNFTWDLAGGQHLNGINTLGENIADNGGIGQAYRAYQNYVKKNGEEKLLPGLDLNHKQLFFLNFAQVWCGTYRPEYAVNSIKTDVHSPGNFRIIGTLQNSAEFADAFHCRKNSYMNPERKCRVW
Procedure: as §1
The in vitro inhibition of NEP (EC 3.4.24.11) can be determined as follows:
NEP 3.4.24.11 activity is determined by the hydrolysis of the substrate glutaryl-Ala-Ala-Phe-2-naphthylamide […] using a modified procedure of Orlowski and Wilk (1981). The incubation mixture (total volume 125 μL) contains 4.2 μL of protein (rat kidney cortex membranes prepared by method of Maeda et al. (1983), 50 mM tris buffer, pH 7.4 at 25°0 C., 500 μM substrate (final concentration), and leucine aminopeptidase M (2.5 μg). The mixture is incubated for 10 minutes at 25° C., and 100 μL of fast garnet (250 μg fast garnet/mL of 10% Tween 20 in 1M sodium acetate pH 4.2) is added. Enzyme activity is measured spectrophotometrically at 540 nm. One unit of NEP 24.11 activity is defined as 1 nmol of 2-naphthylamine released per minute at 25° C. at pH 7.4. IC50 values are determined, i.e., the concentration of test compound required for 50% inhibition of the release of 2-naphthylamine.

[3] = target: rabbit antibodies that recognize specifically the carboxyl terminal tryptophan of ET-1; assay: RIA: displacement of [125I]ET-1 binding to anti-ET-1 antibodies; conditions: mean±SEM, n=3–5
Procedure: Diluted samples ([…]) obtained from the above enzyme assay are incubated at 4° C. overnight with 25 μL each of [^125I]ET-1 (10,000 cpm/tube) and 1:20,000-fold diluted rabbit antibodies that recognize specifically the carboxyl terminal tryptophan of ET-1. Goat anti-rabbit antibodies coupled to magnetic beads (70 μg) are then added to each tube, and the reaction mixture is further incubated for 30 minutes at room temperature. The beads are pelleted using a magnetic rack. The supernatant is decanted, and the radioactivity in the pellet is counted in a gamma counter. Total and non-specific binding are measured in the absence of non-radioactive ET-1 and anti-ET antibodies, respectively.

With `CCOC(=O)[C@H](Cc1ccc(OC)cc1)NC(=O)C(C)(C)NC(=O)[C@@H](SC(C)=O)C1CCOCC1` [Example 1f, N-[2-[(S)-2-acetylthio-2-(4-tetrahydropyranyl)-acetylamino]-2-methylpropionyl]-(L)-4-methoxyphenylalanine ethyl ester] the “inhibition of the angiotensin I induced pressor response” value [1] was 98% and the “reduction of mean arterial pressure” value [2] was “about 16 mm Hg”.

`COc1ccc(C[C@H](NC(=O)C(C)(C)NC(=O)[C@@H](S)C2CCOCC2)C(=O)O)cc1` [Example 2g, N-[2-[(S)-2-mercapto-2-(4-tetrahydropyranyl)-acetylamino]-2-methylpropionyl]-(L)-4-methoxyphenylalanine] gave an IC50 (ACE) of ~5.9 nM and an IC50 (NEP (EC 3.4.24.11)) of ~4.8 nM.

“ET-1: non-radioactive ET-1, the peptide formed from big ET-1 by ECE and measured by RIA” was tested, and the “IC50 for displacement of [125I]ET-1 binding to the antibodies” value [3] was 21 ± 2 fmol.

For “big ET-1: ECE substrate from which ET-1 is formed; added in the ECE-1 assay (CSCSSLMDKECVYFCHLDIIWVNTPEHVVPYGLGSPRS; disulfide 1-15, 3-11; ends not checked; UniProt P05305 53-90, looked up)”, the “IC50 for displacement of [125I]ET-1 binding to the antibodies” value [3] was 260,000±66,000 fmol.
